For assay [1], the target named is Protein kinase C delta type (Homo sapiens) (UniProt Q05655). The assay is described as follows: Inhibition of human recombinant PKCd at 40 nM related to control ULK1.
Assay [2] concerns the target Glycogen synthase kinase-3 beta (Homo sapiens) (UniProt P49841). The assay is described as follows: Inhibition of human recombinant GSK3B at 40 nM in presence of ATP by radiometric assay relative to control.
The target in assay [3] is T1, Serine/threonine-protein kinase DCLK2 (Homo sapiens) (UniProt Q8N568).
T1 sequence (whole entry): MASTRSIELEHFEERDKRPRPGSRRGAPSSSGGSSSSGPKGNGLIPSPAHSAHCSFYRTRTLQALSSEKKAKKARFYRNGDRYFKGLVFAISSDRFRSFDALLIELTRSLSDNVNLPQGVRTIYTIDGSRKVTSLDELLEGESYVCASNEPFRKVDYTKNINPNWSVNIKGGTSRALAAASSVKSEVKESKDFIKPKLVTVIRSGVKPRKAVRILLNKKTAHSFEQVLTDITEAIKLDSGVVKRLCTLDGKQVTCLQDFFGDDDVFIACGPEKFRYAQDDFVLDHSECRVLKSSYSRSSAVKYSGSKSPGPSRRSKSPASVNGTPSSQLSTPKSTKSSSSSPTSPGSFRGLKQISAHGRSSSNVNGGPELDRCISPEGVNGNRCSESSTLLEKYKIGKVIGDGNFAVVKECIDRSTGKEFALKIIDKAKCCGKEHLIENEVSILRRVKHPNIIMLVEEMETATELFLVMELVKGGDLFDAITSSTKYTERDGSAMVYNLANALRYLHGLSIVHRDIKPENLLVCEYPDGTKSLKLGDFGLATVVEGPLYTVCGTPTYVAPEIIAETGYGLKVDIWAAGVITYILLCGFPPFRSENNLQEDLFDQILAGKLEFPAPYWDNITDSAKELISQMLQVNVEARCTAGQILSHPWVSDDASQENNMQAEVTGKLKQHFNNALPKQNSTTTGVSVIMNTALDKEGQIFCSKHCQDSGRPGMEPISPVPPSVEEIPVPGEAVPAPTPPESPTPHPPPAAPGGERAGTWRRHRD
Description: Inhibition of human recombinant DCAMKL2 at 40 nM in presence of ATP by radiometric assay relative to control.

In assay [4] the target is Calcium/calmodulin-dependent protein kinase type II subunit beta (Homo sapiens) (UniProt Q13554). The assay is described as follows: Inhibition of human recombinant CaMK2b at 40 nM in presence of ATP by radiometric assay relative to control.
In assay [5] the target is Serine/threonine-protein kinase D2 (Homo sapiens) (UniProt Q9BZL6). Description: Inhibition of human recombinant PKD2 at 40 nM in presence of ATP by radiometric assay relative to control.
The target of assay [6] is T2, Mitogen-activated protein kinase kinase kinase kinase 2 (Homo sapiens) (UniProt Q12851).
T2 sequence (whole entry): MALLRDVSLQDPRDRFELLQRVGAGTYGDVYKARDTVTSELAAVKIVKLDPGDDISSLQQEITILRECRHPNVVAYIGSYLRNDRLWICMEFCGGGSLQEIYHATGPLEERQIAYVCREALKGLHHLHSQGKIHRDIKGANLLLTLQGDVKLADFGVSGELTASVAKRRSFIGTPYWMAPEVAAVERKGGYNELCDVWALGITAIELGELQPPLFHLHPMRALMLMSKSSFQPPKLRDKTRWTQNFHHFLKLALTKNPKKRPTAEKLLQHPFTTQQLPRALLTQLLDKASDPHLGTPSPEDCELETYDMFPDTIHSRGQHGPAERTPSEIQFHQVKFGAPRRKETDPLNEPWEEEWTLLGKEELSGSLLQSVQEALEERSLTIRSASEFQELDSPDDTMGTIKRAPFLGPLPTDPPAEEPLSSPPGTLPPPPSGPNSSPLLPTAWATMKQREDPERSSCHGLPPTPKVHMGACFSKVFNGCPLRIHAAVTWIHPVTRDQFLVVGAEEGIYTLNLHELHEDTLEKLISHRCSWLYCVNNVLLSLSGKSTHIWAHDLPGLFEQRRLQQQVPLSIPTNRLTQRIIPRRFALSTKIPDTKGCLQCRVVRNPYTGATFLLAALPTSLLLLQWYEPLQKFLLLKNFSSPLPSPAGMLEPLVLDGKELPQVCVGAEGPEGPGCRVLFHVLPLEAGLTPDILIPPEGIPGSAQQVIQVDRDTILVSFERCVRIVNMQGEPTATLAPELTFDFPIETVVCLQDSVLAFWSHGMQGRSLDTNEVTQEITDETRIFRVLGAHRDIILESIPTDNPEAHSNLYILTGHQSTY
The assay is described as follows: Inhibition of human recombinant GCK at 40 nM related to control ULK1.

The target of assay [7] is Serine/threonine-protein kinase N1 (Homo sapiens) (UniProt Q16512). The assay is described as follows: Inhibition of human recombinant PKN1 at 40 nM in presence of ATP by radiometric assay relative to control.
The target of assay [8] is Serine/threonine-protein kinase D2 (Homo sapiens) (UniProt Q9BZL6). Description: Inhibition of human recombinant PKD2 at 500 nM related to control ULK1.
In assay [9] the target is Serine/threonine-protein kinase PLK3 (Homo sapiens) (UniProt Q9H4B4). Description: Inhibition of human recombinant PLK3 at 500 nM in presence of ATP by radiometric assay relative to control.
Assay [10] deals with Tyrosine-protein kinase FRK (Homo sapiens) (UniProt P42685). The assay is described as follows: Inhibition of human recombinant FRK at 15 nM related to control ULK1.
The target of assay [11] is Transient receptor potential cation channel subfamily M member 7 (Homo sapiens) (UniProt Q96QT4). Description: Inhibition of human recombinant ChaK1 at 15 nM related to control ULK1.
The target of assay [12] is Ephrin type-A receptor 5 (Homo sapiens) (UniProt P54756). The assay is described as follows: Inhibition of human recombinant EphA5 at 15 nM in presence of ATP by radiometric assay relative to control.

Each structure is given as a SMILES string.

Sequence of Serine/threonine-protein kinase D2 (Homo sapiens) (Q9BZL6 whole entry, looked up): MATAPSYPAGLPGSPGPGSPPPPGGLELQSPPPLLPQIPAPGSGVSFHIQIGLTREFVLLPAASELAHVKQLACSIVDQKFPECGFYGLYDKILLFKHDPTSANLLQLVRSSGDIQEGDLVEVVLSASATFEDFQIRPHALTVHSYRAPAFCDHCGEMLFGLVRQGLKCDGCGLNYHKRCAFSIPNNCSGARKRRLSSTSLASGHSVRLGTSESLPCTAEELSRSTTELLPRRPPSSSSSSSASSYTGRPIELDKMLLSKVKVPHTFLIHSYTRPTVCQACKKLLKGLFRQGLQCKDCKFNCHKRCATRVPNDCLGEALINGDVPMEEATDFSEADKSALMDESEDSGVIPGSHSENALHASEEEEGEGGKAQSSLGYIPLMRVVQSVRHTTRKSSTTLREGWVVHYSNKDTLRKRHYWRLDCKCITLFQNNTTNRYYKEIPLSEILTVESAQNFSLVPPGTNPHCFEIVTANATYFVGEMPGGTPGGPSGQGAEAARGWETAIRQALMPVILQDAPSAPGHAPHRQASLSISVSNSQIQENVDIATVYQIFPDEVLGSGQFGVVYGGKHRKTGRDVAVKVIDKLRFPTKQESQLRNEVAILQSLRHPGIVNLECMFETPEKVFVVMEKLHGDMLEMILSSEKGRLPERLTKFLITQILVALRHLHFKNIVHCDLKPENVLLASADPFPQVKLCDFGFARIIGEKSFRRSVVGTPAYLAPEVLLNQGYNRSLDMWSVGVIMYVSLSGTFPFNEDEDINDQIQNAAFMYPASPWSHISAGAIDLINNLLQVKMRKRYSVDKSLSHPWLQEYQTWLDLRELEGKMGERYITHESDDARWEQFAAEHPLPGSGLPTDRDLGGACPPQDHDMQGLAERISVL
Sequence of Transient receptor potential cation channel subfamily M member 7 (Homo sapiens) (Q96QT4 whole entry): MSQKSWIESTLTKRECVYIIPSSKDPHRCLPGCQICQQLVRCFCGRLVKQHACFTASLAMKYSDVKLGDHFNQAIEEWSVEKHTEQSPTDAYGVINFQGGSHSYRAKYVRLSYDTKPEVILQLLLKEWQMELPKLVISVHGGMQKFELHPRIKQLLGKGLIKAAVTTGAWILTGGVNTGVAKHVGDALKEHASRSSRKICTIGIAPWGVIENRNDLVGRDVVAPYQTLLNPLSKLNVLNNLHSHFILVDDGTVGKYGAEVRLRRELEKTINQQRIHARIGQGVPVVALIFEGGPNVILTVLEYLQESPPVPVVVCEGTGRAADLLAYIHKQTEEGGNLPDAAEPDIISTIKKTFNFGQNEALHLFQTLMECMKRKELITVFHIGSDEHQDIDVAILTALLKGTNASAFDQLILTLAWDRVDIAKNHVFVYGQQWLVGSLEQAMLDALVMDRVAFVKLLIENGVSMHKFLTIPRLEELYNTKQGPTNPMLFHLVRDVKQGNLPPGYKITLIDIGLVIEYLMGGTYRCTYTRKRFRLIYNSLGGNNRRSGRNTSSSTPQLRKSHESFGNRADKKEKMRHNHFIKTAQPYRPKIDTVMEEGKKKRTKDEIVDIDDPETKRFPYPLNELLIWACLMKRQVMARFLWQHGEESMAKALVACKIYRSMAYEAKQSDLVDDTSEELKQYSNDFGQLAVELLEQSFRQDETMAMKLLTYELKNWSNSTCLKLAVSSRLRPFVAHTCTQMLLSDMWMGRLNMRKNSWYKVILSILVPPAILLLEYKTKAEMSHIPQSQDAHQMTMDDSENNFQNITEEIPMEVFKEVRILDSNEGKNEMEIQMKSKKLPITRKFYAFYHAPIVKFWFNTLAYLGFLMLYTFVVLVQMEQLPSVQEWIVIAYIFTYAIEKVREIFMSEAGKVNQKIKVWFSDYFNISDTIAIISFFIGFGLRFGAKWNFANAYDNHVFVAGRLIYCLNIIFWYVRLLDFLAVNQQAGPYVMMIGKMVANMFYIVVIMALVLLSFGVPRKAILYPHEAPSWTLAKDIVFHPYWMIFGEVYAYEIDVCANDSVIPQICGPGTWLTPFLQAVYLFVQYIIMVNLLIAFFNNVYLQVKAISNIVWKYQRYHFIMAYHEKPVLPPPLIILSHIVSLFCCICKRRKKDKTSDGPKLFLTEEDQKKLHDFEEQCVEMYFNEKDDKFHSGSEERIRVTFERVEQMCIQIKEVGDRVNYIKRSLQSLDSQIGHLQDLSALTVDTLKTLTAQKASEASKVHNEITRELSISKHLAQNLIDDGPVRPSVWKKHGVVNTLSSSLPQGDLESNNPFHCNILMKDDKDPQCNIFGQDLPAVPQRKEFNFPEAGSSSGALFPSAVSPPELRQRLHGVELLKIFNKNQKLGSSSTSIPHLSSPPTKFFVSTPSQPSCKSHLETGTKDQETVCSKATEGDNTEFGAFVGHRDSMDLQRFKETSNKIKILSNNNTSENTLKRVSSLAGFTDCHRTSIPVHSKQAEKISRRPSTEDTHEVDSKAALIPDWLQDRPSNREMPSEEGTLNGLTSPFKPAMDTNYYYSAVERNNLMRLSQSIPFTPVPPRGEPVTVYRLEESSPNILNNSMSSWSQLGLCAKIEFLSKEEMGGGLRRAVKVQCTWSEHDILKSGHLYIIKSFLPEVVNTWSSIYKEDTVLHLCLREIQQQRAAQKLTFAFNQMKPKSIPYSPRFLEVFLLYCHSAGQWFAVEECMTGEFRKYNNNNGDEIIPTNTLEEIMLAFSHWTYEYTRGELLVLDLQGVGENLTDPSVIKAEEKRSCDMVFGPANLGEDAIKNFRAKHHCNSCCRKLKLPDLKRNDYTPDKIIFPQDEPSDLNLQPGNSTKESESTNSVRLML
Sequence of Tyrosine-protein kinase FRK (Homo sapiens) (P42685 whole entry): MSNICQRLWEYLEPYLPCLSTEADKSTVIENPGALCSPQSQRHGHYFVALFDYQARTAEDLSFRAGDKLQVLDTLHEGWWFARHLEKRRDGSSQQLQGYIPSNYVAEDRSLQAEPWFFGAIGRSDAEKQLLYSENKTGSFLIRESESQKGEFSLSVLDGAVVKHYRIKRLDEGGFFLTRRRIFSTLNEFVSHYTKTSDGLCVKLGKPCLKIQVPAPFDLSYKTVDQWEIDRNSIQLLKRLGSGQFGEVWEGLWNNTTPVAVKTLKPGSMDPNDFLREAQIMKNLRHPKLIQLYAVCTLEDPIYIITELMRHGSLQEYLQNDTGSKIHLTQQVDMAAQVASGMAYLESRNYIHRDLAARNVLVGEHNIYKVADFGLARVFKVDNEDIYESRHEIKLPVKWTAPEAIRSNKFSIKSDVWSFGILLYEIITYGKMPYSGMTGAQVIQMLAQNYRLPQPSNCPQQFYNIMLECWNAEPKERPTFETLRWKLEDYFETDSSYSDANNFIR
Sequence of Glycogen synthase kinase-3 beta (Homo sapiens) (P49841 whole entry, looked up): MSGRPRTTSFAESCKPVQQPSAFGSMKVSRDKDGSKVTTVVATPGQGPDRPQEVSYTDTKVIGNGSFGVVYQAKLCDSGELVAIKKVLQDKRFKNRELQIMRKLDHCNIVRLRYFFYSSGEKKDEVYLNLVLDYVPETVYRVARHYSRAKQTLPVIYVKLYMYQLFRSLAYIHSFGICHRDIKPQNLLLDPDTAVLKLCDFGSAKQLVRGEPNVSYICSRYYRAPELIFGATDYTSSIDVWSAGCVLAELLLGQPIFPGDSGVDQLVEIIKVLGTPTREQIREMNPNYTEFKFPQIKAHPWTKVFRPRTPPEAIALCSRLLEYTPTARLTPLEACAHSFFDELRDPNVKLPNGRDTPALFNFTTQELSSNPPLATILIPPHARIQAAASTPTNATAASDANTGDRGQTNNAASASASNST
Sequence of Serine/threonine-protein kinase N1 (Homo sapiens) (Q16512 2-942 limits assumed): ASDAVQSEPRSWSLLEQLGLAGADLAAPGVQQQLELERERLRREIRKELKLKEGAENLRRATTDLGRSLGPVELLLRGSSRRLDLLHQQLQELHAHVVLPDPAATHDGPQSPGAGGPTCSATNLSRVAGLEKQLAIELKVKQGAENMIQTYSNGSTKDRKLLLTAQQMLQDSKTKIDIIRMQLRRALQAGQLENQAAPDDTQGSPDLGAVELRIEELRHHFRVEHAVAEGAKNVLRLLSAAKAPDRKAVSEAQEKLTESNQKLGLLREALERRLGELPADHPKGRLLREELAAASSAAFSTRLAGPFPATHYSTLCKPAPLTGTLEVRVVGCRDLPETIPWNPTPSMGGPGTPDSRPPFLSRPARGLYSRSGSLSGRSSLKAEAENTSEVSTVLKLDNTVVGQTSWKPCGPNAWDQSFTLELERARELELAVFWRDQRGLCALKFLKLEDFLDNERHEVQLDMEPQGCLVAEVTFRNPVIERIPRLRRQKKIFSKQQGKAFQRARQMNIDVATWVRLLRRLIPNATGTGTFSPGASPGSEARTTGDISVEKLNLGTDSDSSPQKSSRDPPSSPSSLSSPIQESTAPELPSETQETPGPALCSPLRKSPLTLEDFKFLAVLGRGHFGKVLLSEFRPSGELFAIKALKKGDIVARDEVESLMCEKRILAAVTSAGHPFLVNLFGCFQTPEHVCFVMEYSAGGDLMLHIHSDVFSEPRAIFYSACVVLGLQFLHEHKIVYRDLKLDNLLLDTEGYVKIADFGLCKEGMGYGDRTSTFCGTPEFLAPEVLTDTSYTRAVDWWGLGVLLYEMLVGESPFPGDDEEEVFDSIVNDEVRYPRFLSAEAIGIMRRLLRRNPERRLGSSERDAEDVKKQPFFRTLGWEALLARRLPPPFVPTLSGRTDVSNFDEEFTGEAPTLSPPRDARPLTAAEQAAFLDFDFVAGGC

Regarding `O=C(N[C@@H](C1CC1)C(F)(F)F)c1cc(-c2cnn3cc(-c4ccc(F)cc4)cnc23)cs1`, the fold change (FC) in assay [1] is 0.04; in assay [6], 0. The inhibition in [2] stood at 0%; in [3] it was 0%; in [4], 0%; in assay [5], 6%; in assay [7] it was 0%.

Turning to `CNC(=O)c1ccccc1Oc1nc(Nc2cc(OC)c(OC)c(OC)c2)ncc1Br`, the fold change (FC) in assay [8] is 0.16. Also, in [9], the inhibition came to 0%.

Consider `CC(C)[C@H](NC(=O)c1cc(-c2cnn3cc(-c4ccc(OCCN5CCCCC5)cc4)cnc23)cs1)C(F)(F)F`, for which the fold change (FC) stood at 0.15 in [10] and 0.14 in [11]. Further, the inhibition in assay [12] worked out at 0%.

The values above are taken from ChEMBL document CHEMBL5653631, “A Potent and Selective ULK1 Inhibitor Suppresses Autophagy and Sensitizes Cancer Cells to Nutrient Stress” (iScience, 2018).
